Source: US7091242B2, “Beta-amino acid derivatives as integrin receptor antagonists” (Bayer Aktiengesellschaft, priority 2000, dated 2006)

Columns and labels:
[1] = tested on: Ramos cells / immobilized VCAM-1 (extracellular domains 1–3); assay: Adhesion of Ramos cells to immobilized VCAM-1 (domains 1–3); type: cell-based; conditions: Homo sapiens, 1 h
Excerpt: In Vitro Assay: Adhesion of Ramos Cells to Immobilized VCAM-1 (Domains 1–3) Preparation of VCAM-1 (extracellular domains 1–3)
Complementary DNA (cDNA) encoding 7-domain form of VCAM-1 (GenBank accession #M60335) was obtained using Rapid-ScreenTM cDNA library panels (OriGene Technologies, Inc) at Takara Gene Analysis Center (Shiga, Japan). The primers used were 5′-CCAAGGCAGAGTACGCAAAC-3′ (sense) and 5′-TGGCAGGTATTATTAAGGAG-3′ (antisense). PCR amplification of the 3-domain VCAM-1 cDNA was perform using Pfu DNA polymerase (Stratagene) with the following sets of primers: (U-VCAMd1–3) 5′-CCATATGGTACCTGATCAATTTAAAATCGAGACCACCCCAGAA-3′; (L-VCAMd1–3) 5′-CCATATAGCAATCCTAGGTCCAGGGGAGATCTCAACAGTAAA-3′. PCR cycle was 94° C. for 45 sec, 55° C. for 45 sec, 72° C. for 2 min, repeating 15 cycles. After the purification of the PCR product, the fragment was digested with KpnI-AvrII. The digested fragment was ligated into pBluescript IISK(-) (Strategene), which was linearized by digesting with KpnI-XhoI. The ligation was followed by transformation to a Dam/Dcm methylase-free E. coli strain SCS110 (Strategene) to create the donor plasmid pHH7. To direct VCAM-1 molecule into the insect cell secretory pathway, the VCAM-1 coding sequence was fused to signal peptide sequence of honeybee melittin. The resulting melittin-VCAM fusion was placed in correct orientation to the baculovirus polyhedrin promoter. Baculovirus transfer vector containing first 3-domain form VCAM-1 (pH10) was constructed by ligation of 0.9 kb fragment from AvrIIenow/BclI digests of pH7 into SalI/Klenow/BamHI digests of pMelBacB (Invitrogen). Recombinant baculovirus was generated by using Bac-N-Blue™ Transfection kit (Invitrogen) according to the manufacture's instruction. The recombinant virus was amplified by infection to High-Five™ insect cells for 5–6 days, and virus titer was determined by plaque assay.
High-Five™ insect cells were pelleted in a 225 ml conical tube by centrifugation at 1000 rpm for 5 min. After discarding the supernatant, the pellet was resuspended in 1.5×10^9 pfu (MOI=5) of high-titer virus solution, followed by incubation for 1.5 hours at room temperature. The cells were pelleted again and washed once in fresh Express Five™ serum free medium. The cells were pelleted again and finally, resuspended in 200 ml of fresh Express Five™ medium, transferred to a 1,000 ml shaker flask, and incubated in a shaker at 27° C., 130 rpm, for 48 hours before the culture supernatant was collected. […] Protein concentration was determined by using Coomassie protein assay reagent (Pierce) according to the manufacture's instruction. […]
Preparation of Fluorescence Labeled Ramos Cells: […]

| Structure (SMILES) | melting point [°C] | IC50 [1] [µM] |
| --- | --- | --- |
| COc1ccc(C(CC(=O)Nc2ccc(NC(=O)Nc3ccccc3C)cc2)NC(=O)c2ccc(C(=O)OC(C)(C)C)cc2)cc1OC (stereo not shown) [Example VII, tert-Butyl-4-{[(1-(3,4-dimethoxyphenyl)-3-{[4-({[(2-methylphenyl)-amino]carbonyl}amino)phenyl]amino}-3-oxopropyl)amino]carbonyl}benzoate] | 210 to 215 | – |
| Cc1ccccc1NC(=O)Nc1ccc(CNC(=O)C2(CNC(=O)c3ccc(C(=O)O)cc3)CCCCC2)cc1 [Example 2, 4-[({[1-({[4-({[(2-methylphenyl)amino]carbonyl}-amino)benzyl]amino}carbonyl)cyclohexyl]methyl}-amino)carbonyl]benzoicacid] | – | > 10 |
| COc1ccc(C(CC(=O)NCc2ccc(NC(=O)Nc3ccccc3C)cc2)NC(=O)c2ccc(C(=O)OC(C)(C)C)cc2)cc1OC (stereo not shown) [IX, tert-Butyl-4-{[(1-(3,4-dimethoxyphenyl)-3-{[4-({[(2-methylphenyl)amino]carbonyl}amino)benzyl]amino}-3-oxopropyl)amino]carbonyl}-benzoate] | 223 to 226 | – |
| COc1ccc(C(CC(=O)NCc2ccc(NC(=O)Nc3ccccc3C)cc2)NC(=O)c2ccc(C(=O)O)cc2)cc1OC (stereo not shown) [Example 3, 4-{[(1-(3,4-dimethoxy-phenyl)-3-{[4-({[(2-methyl-phenyl)amino]carbonyl}amino)benzyl]amino}-3-oxopropyl)amino]carbonyl}benzoic acid] | 214 | > 10 |
| Cc1ccccc1NC(=O)Nc1ccc(CNC(=O)C2(CNC(=O)c3ccc(C(=O)OC(C)(C)C)cc3)CCCCC2)cc1 [VIII, tert-Butyl 4-[({[1-({[4-({[(2-methylphenyl)amino]carbonyl}amino)benzyl]amino}carbonyl)cyclohexyl]methyl}-amino)carbonyl]benzoate] | 187 to 189 | – |
| COc1ccc(C(CC(=O)Nc2ccc(NC(=O)Nc3ccccc3C)cc2)NC(=O)c2ccc(C(=O)O)cc2)cc1OC (stereo not shown) [Example 1, 4-{[(1-(3,4-Dimethoxyphenyl)-3-{[4-({[(2-methylphenyl)amino]carbonyl}amino)phenyl]amino}-3-oxopropyl)amino]carbonyl}benzoic acid] | 166 | < 1 |
| COc1cccc(C(CC(=O)Nc2ccc(NC(=O)Nc3ccccc3C)cc2)NC(=O)c2ccc(C(=O)O)cc2)c1 (stereo not shown) [Example 4, 4-{[(1-(3-methoxy-phenyl)-3-{[4-({[(2-methylphenyl)-amino]carbonyl}amino)phenyl]amino}-3-oxopropyl)amino]carbonyl}benzoic acid] | 275 to 280 | < 1 |
